The target of the assay is T1, Rat IKK-2 (Rattus norvegicus, UniProt Q9QY78).
T1 sequence (Q9QY78 1-757): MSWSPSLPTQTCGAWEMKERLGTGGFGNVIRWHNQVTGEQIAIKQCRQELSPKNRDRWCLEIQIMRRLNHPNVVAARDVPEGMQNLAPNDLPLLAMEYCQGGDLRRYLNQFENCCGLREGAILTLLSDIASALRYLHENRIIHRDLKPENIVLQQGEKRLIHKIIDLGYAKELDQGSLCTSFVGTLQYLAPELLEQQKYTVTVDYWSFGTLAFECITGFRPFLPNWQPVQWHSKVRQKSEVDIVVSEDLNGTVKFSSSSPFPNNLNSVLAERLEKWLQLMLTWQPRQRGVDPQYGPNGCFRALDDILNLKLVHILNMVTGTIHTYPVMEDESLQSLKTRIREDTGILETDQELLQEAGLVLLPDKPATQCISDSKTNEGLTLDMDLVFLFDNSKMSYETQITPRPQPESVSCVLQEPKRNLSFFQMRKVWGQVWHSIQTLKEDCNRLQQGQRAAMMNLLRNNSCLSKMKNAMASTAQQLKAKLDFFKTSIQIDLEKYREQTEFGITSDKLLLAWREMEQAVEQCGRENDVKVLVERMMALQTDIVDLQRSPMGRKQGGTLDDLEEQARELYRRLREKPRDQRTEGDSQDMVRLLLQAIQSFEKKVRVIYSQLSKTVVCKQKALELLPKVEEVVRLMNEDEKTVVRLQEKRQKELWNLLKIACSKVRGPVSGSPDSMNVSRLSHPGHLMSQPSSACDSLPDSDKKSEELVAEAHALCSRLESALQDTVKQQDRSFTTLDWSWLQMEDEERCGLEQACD
Put plainly: Rat IKK-2 enzyme assay. The assay is classed as biochemical. The following applies: read-out: IC50 (μM) rIKK-2. The procedure:
Kinase activity was measured using a biotinylated […] peptide (Gly-Leu-Lys-Lys-Glu-Arg-Leu-Leu-Asp-Asp-Arg-His-Asp-Ser32-Gly-Leu-Asp-Ser36-Met-Lys-Asp-Glu-Glu) (American Peptide Co.). 20 μL of the standard reaction mixture contained 5 μM biotinylated IκBα peptide, 0.1 μCi/reaction [γ-^33P] ATP (Amersham) (about 1×10^5 cpm), 1 μM ATP (Sigma), 1 mM DTT (Sigma), 2 mM MgCl2 (Sigma), 2 mM MnCl2 (Sigma), 10 mM NaF (Sigma), 25 mM Hepes (Sigma) buffer, pH. 7.6 and 20 μL enzyme solution (50 nM/rxn or 200 ng/rxn) and 10 μL inhibitor in a final volume of 50 μL. After incubation at 25° C. for 60 min, 150 μL resin was added to each well to stop the reaction. Resin was mixed and allowed to settle for 1 h and 50 μL of supernatant was removed to a Micolite 2 flat bottom plate (Dynex). 150 μL of scintillation fluid (Microscint 40) (Packard) was added to each well. Incorporation of [γ-^33P] ATP was measured using a Top-Count NXT (Packard).

Each structure is given as a SMILES string.

For `NC(=O)Nc1cn(-c2ccc(-c3ccc(O)cc3)c(F)c2)nc1C(N)=O` [Example 264, 4-[(aminocarbonyl)amino]-1-(2-fluoro-4′-hydroxy-1,1′-biphenyl-4-yl)-1H-pyrazole-3-carboxamide], the IC50 stood at 0.17 µM.

In the case of `CCc1ccccc1-n1cc(NC(N)=O)c(C(N)=O)n1` [Example 314, 1-(2-ethyl-phenyl)-4-ureido-1H-pyrazole-3-carboxylic acid amide], the IC50 is more than 20 µM.

Regarding `NC(=O)Nc1cn(-c2cccc(Cl)c2F)nc1C(N)=O` [Example 273, 1-(3-chloro-2-fluoro-phenyl)-4-ureido-1 h-pyrazole-3-carboxylic acid amide], the IC50 turned out to be 0.203 µM.

Regarding `NC(=O)COc1cc(F)ccc1-c1ccc(-n2cc(NC(N)=O)c(C(N)=O)n2)cc1F` [Example 268, 4-[(aminocarbonyl)amino]-1-[2′-(2-amino-2-oxoethoxy)-2,4′-difluoro-1,1′-biphenyl-4-yl]-1H-pyrazole-3-carboxamide], the IC50 worked out at 0.175 µM.

Regarding `CCCc1ccc(-n2cc(NC(N)=O)c(C(N)=O)n2)cc1` [Example 305, 4-[(aminocarbonyl)amino]-1-(4-propylphenyl)-1H-pyrazole-3-carboxamide], the IC50 stood at 0.098 µM.

Regarding `Cc1ccccc1-n1cc(NC(N)=O)c(C(N)=O)n1` [Example 318, 1-o-tolyl-4-ureido-1H-pyrazole-3-carboxylic acid amide], the IC50 came to 8.52 µM.

Consider `NC(=O)Nc1cn(-c2ccc(S(=O)(=O)c3ccccc3F)c(Cl)c2)nc1C(N)=O` [Example 271, 4-[(aminocarbonyl)amino]-1-{3-chloro-4-[(2-fluorophenyl)sulfonyl]phenyl}-1H-pyrazole-3-carboxamide], for which the IC50 worked out at 0.956 µM.

On to `Cc1cc(-n2cc(NC(N)=O)c(C(N)=O)n2)ccc1S(=O)(=O)c1cccc(F)c1` [Example 312, 1-[4-(3-fluoro-benzenesulfonyl)-3-methyl-phenyl]-4-ureido-1H-pyrazole-3-carboxylic acid amide], for which the IC50 turned out to be 0.975 µM.

As for `Cc1cc(-n2cc(NC(N)=O)c(C(N)=O)n2)ccc1-c1ccc(O)cc1` [Example 308, 1-(4′-hydroxy-2-methyl-biphenyl-4-yl)-4-ureido-1H-pyrazole-3-carboxylic acid amide], the IC50 was 0.099 µM.

Regarding `Cc1ccc(-n2cc(NC(N)=O)c(C(N)=O)n2)cc1F` [Example 326, 4-[(aminocarbonyl)amino]-1-(3-fluoro-4-methylphenyl)-1H-pyrazole-3-carboxamide], the IC50 came out at 0.365 µM.

In the case of `NC(=O)Nc1cn(-c2cccc(O)c2)nc1C(N)=O` [Example 300, 1-(3-hydroxy-phenyl)-4-ureido-1H-pyrazole-3-carboxylic acid amide], the IC50 was found to be 0.378 µM.

`CCCOc1ccc(-n2cc(NC(N)=O)c(C(N)=O)n2)cc1Cl` [Example 334, 4-[(aminocarbonyl)amino]-1-(3-chloro-4-propoxyphenyl)-1H-pyrazole-3-carboxamide]: the IC50 was 2.42 µM.

On to `NC(=O)Nc1cn(-c2cccc3c2sc2ccccc23)nc1C(N)=O` [Example 324, 4-[(aminocarbonyl)amino]-1-dibenzo[b,d]thien-4-yl-1H-pyrazole-3-carboxamide], for which the IC50 is more than 20 µM.

Regarding `NC(=O)Nc1cn(-c2ccc(-c3cc(F)ccc3O)c(F)c2)nc1C(N)=O` [Example 263, 4-[(aminocarbonyl)amino]-1-(2,5′-difluoro-2′-hydroxy-1,1′-biphenyl-4-yl)-1H-pyrazole-3-carboxamide], the IC50 is 0.482 µM.

With `Cc1cc(-n2cc(NC(N)=O)c(C(N)=O)n2)ccc1Sc1cccc(F)c1` [Example 311, 1-[4-(3-fluoro-phenylsulfanyl)-3-methyl-phenyl]-4-ureido-1H-pyrazole-3-carboxylic acid amide], the IC50 is 2.33 µM.

Regarding `NC(=O)Nc1cn(-c2cccc(F)c2)nc1C(N)=O` [Example 316, 1-(3-fluoro-phenyl)-4-ureido-1H-pyrazole-3-carboxylic acid amide], the IC50 is 0.533 µM.

One may read the IC50 as the point on the concentration scale where inhibition reaches its midpoint.

(Values after patent US20050197338A1, “Substituted pyrazole urea compounds for the treatment of inflammation” (priority 2003, published 2005).)
